The nature of the series: Phenomenex Kinetex C18, 150 × 2.1 mm, 1.7 µm, 30 °C, 0.3 mL/min; A: water + 0.1% formic acid; B: acetonitrile + 0.1% formic acid; gradient (min/%B) 0/2 14/100 17/100 17/2 25/2. Particulars: stereoisomer not certain.

On to `CC12CCC(=O)C=C1CCC1C2C(O)CC2(C=O)C(C(=O)CO)CCC12` (centres undefined), for which the LC retention time came to 7.15 min. As for `CC12CCC(=O)C=C1CCC1C2CCC2(C)C1CCC2(O)CCO` (centres undefined), the figure is 10 min; as for `CC12CCC3C(CCC4=CC(=O)CCC43C)C1CC(O)C2=O` (centres undefined), 8.39 min. For the compound `CC12CCC(=O)CC1CCC1C2CCC2(C)C(C(=O)CO)CCC12` (centres undefined), the LC retention time amounted to 11.6 min.
